Data from patent US9862742B2, “Tricyclic nucleosides and oligomeric compounds prepared therefrom” (UNIVERSITAT BERN, priority 2013, dated 2018).
Oligonucleotides are written 5' to 3', each unit as a sugar letter and its base; * is a phosphorothioate linkage, no mark a phosphodiester; rarer units and linkages stand in square brackets, end groups in braces. Plain capitals give the bases only. [6'F-TC-N] = 6'-fluorinated tricyclic nucleoside, subtype b of the publication (N: the base); [F-tcDNA] = 6'-fluoro tricyclic (tricyclo-DNA) nucleoside; [tcDNA-N] = tricyclo-DNA nucleoside (N: the base); [tcDNA] = tricyclo-DNA nucleoside; d = 2'-deoxy (DNA); {P} = phosphate

What was measured:
complementary DNA = experiment: Tm study of oligomeric compounds duplexed with complementary DNA (UV melting); format: binding; settings: 1.2 μM, 150 mM NaCl, 10 mM phosphate, 0.1 mM EDTA, pH 7; for ΔTm/mod (° C.) vs DNA: referenced to unmodified DNA or to the fully modified tricyclo-DNA oligomer
Protocol: (§1) The relative ability of a chemically-modified oligomeric compound to bind to complementary nucleic acid strands, as compared to natural oligonucleotides, is measured by obtaining the melting temperature of a hybridization complex of said chemically-modified oligomeric compound with its complementary unmodified target nucleic acid. The melting temperature (Tm), a characteristic physical property of double helixes, denotes the temperature in degrees centigrade at which 50% helical versus coiled (unhybridized) forms are present. Tm (also commonly referred to as binding affinity) is measured by using the UV spectrum to determine the formation and breakdown (melting) of hybridization. Base stacking, which occurs during hybridization, is accompanied by a reduction in UV absorption (hypochromicity). Consequently a reduction in UV absorption indicates a higher Tm. Following standard automated DNA synthesis protocols oligomeric compounds were prepared comprising one or more tricyclic nucleosides for Tm studies. After cleavage from the solid support, the oligomeric compounds were purified by ion exchange HPLC and analyzed by LCMS using standard procedures. The Tm of the modified 10 mer oligomeric compounds were compared to an unmodified 10 mer DNA oligonucleotide when duplexed to either DNA or RNA. Tm's were determined using a Cary 100 Bio spectrophotometer with the Cary Win UV thermal program was used to measure absorbance vs. temperature. For the Tm experiments, the oligomeric compounds were prepared at a concentration of 1.2 μM in a buffer of 150 mM NaCl, 10 mM phosphate, 0.1 mM EDTA at pH 7. The concentration determined at 85° C. was 1.2 μM after mixing of equal volumes of selected oligomeric compound and complementary RNA or DNA. The oligomeric compounds were hybridized with a complementary RNA or DNA by heating the duplex to 90° C. for 5 minutes and then cooling to room temperature. Tm measurements were taken using a spectrophotometer while the duplex solution was heated in a cuvette at a rate of 0.5° C./min starting at 15° C. until the temperature was 85° C. Tm values were determined using Vant Hoff calculations (A260 vs temperature curve) using non self-complementary sequences where the minimum absorbance related to the duplex and the maximum absorbance related to the non-duplex single strand are manually integrated into the program.

complementary RNA = experiment: Tm study of oligomeric compounds duplexed with complementary RNA (UV melting); format: binding; settings: 1.2 μM, 150 mM NaCl, 10 mM phosphate, 0.1 mM EDTA, pH 7; for ΔTm/mod (° C.) vs RNA: referenced to unmodified DNA or to the fully modified tricyclo-DNA oligomer
Protocol: as §1

[1] = system: exon 23 of the mouse dystrophin gene; experiment: Exon 23 skipping in primary mdx cells, gymnotic delivery, RT-PCR/nested PCR and gel electrophoresis; format: cell-based; settings: for exon skipping (exon 23, gel of nested PCR products): 50 μg (approx 9 nmol) oligonucleotide, no transfection agent (gymnosis), harvested 4 days after transfection
Description: The mdx mouse represents a model for the human genetic disease Duchenne muscular dystrophy. It contains a mutation in exon 23 of the mouse dystrophin gene which gives rise to a premature stop codon. As a consequence no functional dystrophin mRNA and dystrophin protein is produced. It is known in the field (Lu et al., Proc Natl Acad Sci USA 2005, 102, 198-203) that administration of an antisense oligonucleotide designed to bind to the exon/intron junction of exon 23 leads to skipping of exon 23 during mRNA splicing and thus to a functional variant of the mouse dystrophin protein.
To test the exon skipping potential of A20-A23, mdx primary cells (mdx mouse) were transfected without transfection agents (gymnosis) with 50 μg (approx 9 nmol) of each oligonucleotide A20 to A23. Cells were harvested 4 days after transfection and the RNA was extracted. RT-PCR and nested PCR around exon 23 (EX20F/Ex26R) was performed and the products analyzed by gel electrophoresis (FIG. 1).
The slower moving band correspond to nonskipped RNA (including […]) while the faster moving band corresponds to skipped ([…] excluded) RNA.

Substance: 14 (AACT_{d}GTCACG; as printed in the source, key not given here) [compound 14]
- ΔTm/mod (° C.) vs DNA (complementary DNA): −2.7 °C
- ΔTm/mod (° C.) vs RNA (complementary RNA): −2.5 °C

Substance: SEQ ID NO. 07: pAaAaCaTaGaTbCaAaCaGa, tricyclo-DNA backbone with one 6′-fluoro residue, 5′-phosphorylated (AACTGTCACG; sugars from the 5' end [tcDNA]5 [F-tcDNA]1 [tcDNA]4, all phosphodiester, 5' {P}, methylation of C not given here)
- ΔTm/mod (° C.) vs RNA (complementary RNA): up to +0.7 °C

Substance: 07 (pA_{a}A_{a}C_{a}T_{a}G_{a}T_{b}C_{a}A_{a}C_{a}G_{a}; as printed in the source, key not given here) [compound 07]
- ΔTm/mod (° C.) vs DNA (complementary DNA): 0 °C
- ΔTm/mod (° C.) vs RNA (complementary RNA): +0.7 °C

Substance: SEQ ID NO. 06: pAaAaCaTaGaTaCaAaCaGa, fully modified tricyclo-DNA, 5′-phosphorylated (AACTGTCACG; all [tcDNA-N], all phosphodiester, 5' {P}, methylation of C not given here) [reference compound]
- Tm duplexed with DNA (complementary DNA): 55.0 °C
- Tm duplexed with RNA (complementary RNA): 66.2 °C

Substance: SEQ ID NO. 17: GCATdTdTdTdTdACCG, 5 consecutive arabinofluoro residues (GCATTTTTACCG; listed as DNA, chemistry not fully specified)
- ΔTm/mod (° C.) vs RNA (complementary RNA): +0.6 °C

Substance: 03 (dAdAdCdTdG[6'F-TC-T]dCdAdCdG) [compound 03]
- ΔTm/mod (° C.) vs DNA (complementary DNA): +2.0 °C
- ΔTm/mod (° C.) vs RNA (complementary RNA): +0.4 °C

Substance: 05 (dAdAdC[6'F-TC-T]dG[6'F-TC-T]dCdAdCdG) [compound 05]
- ΔTm/mod (° C.) vs DNA (complementary DNA): 0 °C
- ΔTm/mod (° C.) vs RNA (complementary RNA): 0 °C

Substance: 08 (pA_{a}A_{a}C_{a}T_{b}G_{a}T_{a}C_{a}A_{a}C_{a}G_{a}; as printed in the source, key not given here) [compound 08]
- ΔTm/mod (° C.) vs DNA (complementary DNA): −1.6 °C
- ΔTm/mod (° C.) vs RNA (complementary RNA): +0.3 °C

Substance: 16 (GCATTTTTACCG; unmodified DNA) [compound 16]
- ΔTm/mod (° C.) vs DNA (complementary DNA): 0 °C
- ΔTm/mod (° C.) vs RNA (complementary RNA): 0 °C

Substance: 06 (pA_{a}A_{a}C_{a}T_{a}G_{a}T_{a}C_{a}A_{a}C_{a}G_{a}; fully modified with subtype a nucleosides (not given here), 5'-phosphate, phosphodiester, as printed in the source, key not given here) [compound 06]
- ΔTm/mod (° C.) vs DNA (complementary DNA): 0 °C
- ΔTm/mod (° C.) vs RNA (complementary RNA): 0 °C

Substance: 02 (AACTGTCACG; sugars from the 5' end d5 [tcDNA]1 d4, all phosphodiester, methylation of C not given here) [compound 02]
- ΔTm/mod (° C.) vs DNA (complementary DNA): +2.1 °C
- ΔTm/mod (° C.) vs RNA (complementary RNA): +0.9 °C

Substance: 01 (AACTGTCACG; unmodified DNA) [compound 01]
- ΔTm/mod (° C.) vs DNA (complementary DNA): 0 °C
- ΔTm/mod (° C.) vs RNA (complementary RNA): 0 °C

Substance: SEQ ID NO. 01: unmodified 10 mer DNA oligonucleotide AACTGTCACG, phosphodiester (unmodified DNA) [reference compound]
- Tm duplexed with DNA (complementary DNA): 43.5 °C
- Tm duplexed with RNA (complementary RNA): 45.1 °C

Substance: SEQ ID NO. 19: pAaAaCaCaTaCaGaGaCaTaTaAaCaCaTa, 15-mer tricyclo-DNA, PS linkages, 5′-phosphate, no fluorine substituents ({P}-[tcDNA-A]*[tcDNA-A]*[tcDNA-C]*[tcDNA-C]*[tcDNA-T]*[tcDNA-C]*[tcDNA-G]*[tcDNA-G]*[tcDNA-C]*[tcDNA-T]*[tcDNA-T]*[tcDNA-A]*[tcDNA-C]*[tcDNA-C]*[tcDNA-T]) [reference compound]
- exon skipping (exon 23, gel of nested PCR products) [1]: substantial exon skipping

Substance: 12 (AACT_{c}GT_{c}CACG; as printed in the source, key not given here) [compound 12]
- ΔTm/mod (° C.) vs DNA (complementary DNA): +1.8 °C
- ΔTm/mod (° C.) vs RNA (complementary RNA): +2.8 °C

Substance: 10 (AACTGT_{c}CACG; as printed in the source, key not given here) [compound 10]
- ΔTm/mod (° C.) vs DNA (complementary DNA): +1.8 °C
- ΔTm/mod (° C.) vs RNA (complementary RNA): +0.9 °C

Substance: 13 (AACTGT_{d}CACG; as printed in the source, key not given here) [compound 13]
- ΔTm/mod (° C.) vs DNA (complementary DNA): −4.5 °C
- ΔTm/mod (° C.) vs RNA (complementary RNA): −4.7 °C

Substance: SEQ ID NO. 21: pAaAaCbCbTbCbGaGaCbTbTbAaCbCbTb, fluoro-oligonucleotide 15-mer, PS linkages, 5′-phosphate, C is 5-methylcytosine (AACCTCGGCTTACCT; fluoro tricyclo-DNA, PS, 5′-phosphate, 5-methylcytosine; Sequence for biophysical analysis; (1)..(1) tricyclic nucleoside according to fomula I with T1 being phosphate, T2 being phosphorothioate, Bx being adenine and the other substituents being hydrogen; (2)..(2) tricyclic nucleoside according to fomula I with T1 and T2 being phosphorothioate, Bx being adenine and the other substituents being hydrogen; (3)..(3) tricyclic nucleoside according to fomula)
- exon skipping (exon 23, gel of nested PCR products) [1]: substantial exon skipping
- exon skipping, qualitative comparison with A21 ([1]; 50 μg, gymnosis, 4 days): slightly superior compared to A21

Substance: 15 (AACT_{d}GT_{d}CACG; as printed in the source, key not given here) [compound 15]
- ΔTm/mod (° C.) vs DNA (complementary DNA): −4.3 °C
- ΔTm/mod (° C.) vs RNA (complementary RNA): −3.0 °C

Substance: 09 (pA_{a}A_{a}C_{a}T_{b}G_{a}T_{b}C_{a}A_{a}C_{a}G_{a}; as printed in the source, key not given here) [compound 09]
- ΔTm/mod (° C.) vs DNA (complementary DNA): −1.8 °C
- ΔTm/mod (° C.) vs RNA (complementary RNA): −0.2 °C

Substance: 17 (GCAT_{d}T_{d}T_{d}T_{d}T_{d}ACCG; as printed in the source, key not given here) [compound 17]
- ΔTm/mod (° C.) vs DNA (complementary DNA): -1.1 °C
- ΔTm/mod (° C.) vs RNA (complementary RNA): +0.6 °C

Substance: SEQ ID NO. 16: unmodified oligonucleotide GCATTTTTACCG (unmodified DNA) [reference compound]
- Tm duplexed with DNA (complementary DNA): 45.6 °C
- Tm duplexed with RNA (complementary RNA): 42.2 °C

Substance: 04 (dAdAdC[6'F-TC-T]dGdTdCdAdCdG) [compound 04]
- ΔTm/mod (° C.) vs DNA (complementary DNA): +1.6 °C
- ΔTm/mod (° C.) vs RNA (complementary RNA): +0.7 °C
